# Measured values as given in patent US20250319032A1, “PHARMACEUTICAL COMPOSITIONS OF RIBOCICLIB” (Novartis AG, priority 2024, published 2025).
# Values joined by “and” are separate entries in the source; they are usually repeats but may differ in a detail not shown here. Equal values may be shown once.
# Columns and labels:
# [1] = DSC, heating rate 10 ° C./min (with pinhole), cited from earlier work
# [2] = Validation of the HPLC-HRMS method for N-nitroso-ribociclib (precision, accuracy, linearity, LOQ, stability of standard and sample solutions)
# Description: For the purpose of this validation only, the 100% target limit was set at 3.75 ppm (1500 ng NRR/400 mg ribociclib free base).
# Six replicates of the “Sample solution” were prepared according to the procedure described above and tested on the same day. The results are expressed as ppm of NNR with regard to ribociclib free base (μg NNR/g ribociclib free base)
# Two series of six replicates of the “Sample solutions” were prepared according to the procedure described above and tested by two different analysts, on two different days, using different LC/MS systems and different columns. The results are expressed as ppm of NNR with regard to ribociclib free base (μg NNR/g ribociclib free base)
# Three replicates of calibration standard solutions L1 (c=0.5 ng/ml) and L6 (c=100 ng/ml) were prepared according to the procedure described above. Solutions were stored in the dark at room temperature (autosampler (AS) vials). After a period of time, the solutions were reanalyzed. The stability of standard solutions is evaluated by determining the relative difference between the responses […] The results are expressed as concentration in ng/ml, determined from calibration curve in each sequence (time point).
# Three replicates of Sample solution were prepared according to AP. The replicates were analysed at t=0 h and after app. 24 hours and 48 hours of storage in vials AS at room temperature. The results are expressed as ppm of NNR wrt ribociclib free base. (μg NNR/g ribociclib free base).
# In addition, FCT samples stored in flasks on the bench were filtered at defined time point and analysed. For 48 hours stability, composite samples (from Accuracy) were used.
# Sample solutions were prepare according to the procedure described above using 10 mL, 25 mL and 50 mL flasks, three replicates for each volume. Results for 25 mL and 50 mL were compared to 10 mL volume that is prescribed in the AP. The results are expressed as ppm of NNR with regard to ribociclib free base (μg NNR/g ribociclib free base)
# For ribociclib FCT, one composite sample preparation and three replicates of spiked composite sample solutions (prepared as described above) were prepared and tested on the same day.
# The samples (drug substance or composite sample) were spiked at 0.5 ng/ml (0.0625 ppm), 30 ng/mlL (3.75 ppm) and 100 ng/ml (12.5 ppm) levels. Amount of NNR present in the unspiked sample was subtracted and recoveries were calculated as a ratio between amounts found and amounts added.
# In each sequence, calibration solution L1 was injected six times as part of SST test (Repeatability of injections) and the average response was taken for the calculation of calibration curve. Linear regression was weighed with 1/amount.
# Amount of NNR present in the unspiked sample was subtracted (see above) and RSD of corrected amounts calculated.
# [3] = Drug product stability (film-coated tablets, tablet cores, blends, binary mixtures): content of DMP433 on storage; assay type: physicochemical
# Description: The experiments were packed in aluminium bags.
# Blends and compressed (compacted) mixtures of drug substance with the excipients crospovidone (Type A) and microcrystalline cellulose with standard and low nitrite content, and low substituted hydroxypropyl cellulose (L-HPC) from the drug product composition were subjected to accelerated storage conditions (40° C. and 50° C.) for periods up to 1 month. […]
# Binary mixtures were prepared in the same portion as present in the formulation. The samples were packed in alu bags. […]
# 2.8. Sample solution-ribociclib FCT (KISQALI®) • 1. Grind and homogenize 10 tablets (IKA mill can be used). • 2. Into a 10 mL amber volumetric flask accurately about 180 mg of tablet powder (corresponding to 80 mg of ribociclib free base). • 3. Add solvent (50% MeOH) up to ⅔ of flask volume. Vortex the sample for 1 minute and shake on a mechanical shaker for at least 15 min. Fill to volume with solvent and use vortex for 1 minute. • 4. Filter through 0.2 μm PVDF or PTFE filter into a HPLC amber vial, discard the first 0.5 mL. […]
# The content of DMP433 was analysed. […]
# [4] = DMP433 (N-nitroso-ribociclib) content in ribociclib base (B10) and ribociclib succinate (B12, drug substance) batches and process experiments, LC-MS/MS or HPLC-HRMS; assay type: physicochemical; conditions: for DMP433 (LOQ: 30 ppb): LEE011-B10, laboratory scale 30 g experiments; for DMP433 [ppm] LOQ (0.0625 ppm) / DMP433 [ppm], result in brackets (extrapolation, estimate of actual value below LOQ): ribociclib base (LEE011 B10); for DMP433 in LEE011 B12: laboratory scale salt formation; for DMP433 [ppm]: laboratory use test, salt formation B10 to B12 with filter parts added (filter per experiment), AS&T LJ LC-MS/MS
# From the text: The method of testing for the presence and/or total amount of nitrosamines (such as the presence and/or total amount of N-nitroso-ribociclib in free or salt form) that is used in the methods of the invention may be any method which allows for the detection of nitrosamines in a composition. For example, the method may involve the Griess test described above. In such a method, the nitrosamines may be first denitrosated (e.g., by photolysis) to form a nitrite, which is then detected in the Griess test. Alternatively, the method may include high performance liquid chromatography (HPLC)- and/or gas chromatography (GC)-mass spectroscopy. An example of a method of testing for the presence and amount of nitrosamines (namely N-nitroso-ribociclib) is provided herein as Example 14. […]
# 2.7. […] Dissolve the substance using vortex and fill to volume with solvent (50% MeOH). • 3. Filter through 0.2 μm PVDF (polyvinylidene difluoride) or PTFE (polytetrafluoroethylene) filter into a HPLC amber vial, discard the first 0.5 ml.
# A calibration curve for DMP433 is created, using calibration standard solutions L1-L6, and expressing the relationship between responses (peak areas) and standard concentrations (ng/ml). For L1, the average of 6 injections is used. Linear regression is weighed with 1/amount. […]
# [5] = Nitrite content (ion chromatography; LC-FLD with DAN derivatisation; Griess test) in drug substance, intermediates, reagents, solvents, filters, excipients; assay type: physicochemical; conditions: for Nitrite (LOQ: 0.1 ppm) / Nitrite, value in brackets below LOQ: LEE011-B10, laboratory scale 30 g experiments; for Nitrite in LEE011 B12: laboratory scale salt formation
# Procedure, shortened: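 Nitrite measured by Griess reaction (sulfanilamide diazotisation, N-(1-naphthyl)ethylenediamine azo coupling, spectrophotometric read) or by DAN derivatisation with C18 HPLC-fluorescence (10 mM KH2PO4 pH 8.0/methanol). About 1000 mg sample in 10 mL methanol/water 1:1; comparison standard ≈100 ppb nitrite.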
# [6] = NDMA content in LEE011-B12 (IP) after ion exchange resin treatment (option 2 process); assay type: physicochemical; conditions: (n.d.)
# [7] = ribociclib base (LEE011 B10), ion chromatography
# [8] = additional batches of ribociclib base LEE011-B10 (IP-1)
# [9] = nitrite in iPrOH <5 ppb (1.3 ppb extrapolated)
# [10] = nitrite in iPrOH <5 ppb (3.1 ppb extrapolated)
# [11] = laboratory use test, salt formation B10 to B12 with filter parts added, QLS LJ LC-FLD/DAN
compound,measurement,setting,value
CN(C)C(=O)c1cc2cnc(Nc3ccc(N4CCNCC4)cn3)nc2n1C1CCCC1.O=C(O)CCC(=O)O [ribociclib succinate Form E],Endothermic onset,[1],210.0 °C
same,Enthalpy,"[1]; melting/decomposition, for information only",194.8 J/g
CN(C)C(=O)c1cc2cnc(Nc3ccc(N4CCNCC4)cn3)nc2n1C1CCCC1.O=C(O)CCC(=O)O [Ribociclib Succinate Drug Substance],NNR Amount found (ppm),"[2]; level S0, unspiked",0.3328 ppm and 0.3246 ppm and 0.3256 ppm
same,NNR Amount found (ppm),"[2]; level S1, spiked 0.0625 ppm",0.3754 ppm and 0.3778 ppm and 0.3796 ppm and 0.3774 ppm and 0.3781 ppm and 0.3824 ppm
same,NNR Amount found (ppm),"[2]; level S2, spiked 3.75 ppm",3.5823 ppm and 3.7302 ppm and 3.8822 ppm
same,NNR Amount found (ppm),"[2]; level S3, spiked 12.5 ppm",11.0295 ppm and 11.6248 ppm and 11.8859 ppm
CN(C)C(=O)c1cc2cnc(Nc3ccc(N4CCNCC4)cn3)nc2n1C1CCCC1.O=C(O)CCC(=O)O [DS (B699003AA) (compact)],DMP433 content,"[3]; T0, binary mixtures/blends/compacts, alu bags",0.7 ppm
same,DMP433 content,"[3]; T 1 m (50° C./75% RH), alu bags",1.1 ppm
same,DMP433 content,"[3]; T 2 w (40° C./75% RH), alu bags",0.9 ppm
same,DMP433 content,"[3]; T 2 w (50° C./75% RH), alu bags",0.8 ppm
CN(C)C(=O)c1cc2cnc(Nc3ccc(N4CCNCC4)cn3)nc2n1C1CCCC1.O=C(O)CCC(=O)O [DS (B699003AA) compact],DMP433 content,"[3]; binary studies of drug substance with excipients, T0",0.7 ppm
same,DMP433 content,"[3]; binary studies, 40° C., T 2 Weeks",0.9 ppm
same,DMP433 content,"[3]; binary studies, 50° C., T 1 Month",1.1 ppm
same,DMP433 content,"[3]; binary studies, 50° C., T 2 Weeks",0.8 ppm
CN(C)C(=O)c1cc2cnc(Nc3ccc(N4CCNCC4)cn3)nc2n1C1CCCC1 [Batch 805193A096],DMP433 (LOQ: 30 ppb),[4],70.5 ppb
same,Nitrite (LOQ: 0.1 ppm),[5],< 0.1 ppm
same,"Nitrite, value in brackets below LOQ",[5],0.05 ppm
CN(C)C(=O)c1cc2cnc(Nc3ccc(N4CCNCC4)cn3)nc2n1C1CCCC1.O=C(O)CCC(=O)O [Ribociclib succinate],depletion of DMP433 in the ribociclib succinate (B12) crystal by additional washing,[4]; 3 washes vs 2 washes of isopropanol,about 38%
same,DMP433 in LEE011-B12 (IP),"[4]; resin loading vs B10 20 w/w %, B10 Raybow batch 805193A078, option 2 process",220 ppb
same,DMP433 in LEE011-B12 (IP),"[4]; resin loading vs B10 50 w/w %, wet cake, B10 Raybow batch 805193A078",211 ppb
same,DMP433 in LEE011-B12 (IP),"[4]; resin loading vs B10 100 w/w %, wet cake, B10 Raybow batch 805193A078",238 ppb
same,NDMA in LEE011-B12 (IP),[6]; resin loading vs B10 20 w/w %,<100 ppb
same,NDMA in LEE011-B12 (IP),[6]; resin loading vs B10 50 w/w %,<100 ppb
same,NDMA in LEE011-B12 (IP),[6]; resin loading vs B10 100 w/w %,<100 ppb
CN(C)C(=O)c1cc2cnc(Nc3ccc(N4CCNCC4)cn3)nc2n1C1CCCC1 [LEE011-B10 24003],DMP433 (ppm) in B10,"[4]; B10 batches on commercial scale, potassium carbonate of different nitrite level",0.05 ppm
same,Nitrite [ppm],"[5]; in B10 batches on commercial scale, potassium carbonate of different nitrite level",0.1 ppm
CN(C)C(=O)c1cc2cnc(Nc3ccc(N4CCNCC4)cn3)nc2n1C1CCCC1 [Batch 923037A005],DMP433 [ppm] LOQ (0.0625 ppm),[4],LOQ
same,"DMP433 [ppm], result in brackets (extrapolation, estimate of actual value below LOQ)",[4],0.048 ppm
same,Nitrite [ppm] LOD (1 ppm),[5]; [7],<LOD
CN(C)C(=O)c1cc2cnc(Nc3ccc(N4CCNCC4)cn3)nc2n1C1CCCC1 [Batch 805193A095],DMP433 (LOQ: 30 ppb),[4],55.8 ppb
same,Nitrite (LOQ: 0.1 ppm),[5],< 0.1 ppm
same,"Nitrite, value in brackets below LOQ",[5],0.08 ppm
CN(C)C(=O)c1cc2cnc(Nc3ccc(N4CCNCC4)cn3)nc2n1C1CCCC1 [Batch 805193A078],DMP433 in LEE011-B10,[4]; B10 starting material of resin experiments,DMP433: 92 ppb
same,DMP433 [ppb],[4]; [8],78 ppb
same,DMP433 in LEE011 B12,[4]; nitrite in iPrOH 119.6 ppb,14238 ppb
same,DMP433 in LEE011 B12,[4]; nitrite in iPrOH 162.7 ppb,18011 ppb
same,DMP433 in LEE011 B12,[4]; [9],995 ppb
same,DMP433 in LEE011 B12,[4]; [10],1513 ppb
same,DMP433 in LEE011-B12 (IP),"[4]; nitrite in IPA 1.6 ppb, resin treatment of B10/IPA solution",220 ppb
same,DMP433 in LEE011-B12 (IP),"[4]; nitrite in IPA 1.6 ppb, resin treatment only IPA (nitrite carryover from B10 remained)",528 ppb
same,Nitrite [ppm] LOD (1 ppm),[5]; [8],<LOD
same,Nitrite in LEE011 B12,[5]; [9],448 ppb
same,Nitrite in LEE011 B12,[5]; [10],326 ppb
CN(C)C(=O)c1cc2cnc(Nc3ccc(N4CCNCC4)cn3)nc2n1C1CCCC1.O=C(O)CCC(=O)O [ribociclib succinate drug substance],"NNR Average (ppm), Ruggedness",[2]; n = 6,0.241 ppm
same,NNR Total average (ppm),"[2]; n = 12, intermediate precision",0.240 ppm
same,"NNR (ppm), Ruggedness, single replicate","[2]; second analyst, day, LC/MS system and column, replicates R1-R6",0.287 ppm and 0.243 ppm and 0.244 ppm and 0.176 ppm and 0.262 ppm and 0.235 ppm
CN(C)C(=O)c1cc2cnc(Nc3ccc(N4CCNCC4)cn3)nc2n1C1CCCC1.O=C(O)CCC(=O)O [LEE011-cusakan1-050],DMP433 [ppm],[4],0.530 ppm
same,Nitrite [ppm],[5]; [11],app. 0.6 ppm
CN(C)C(=O)c1cc2cnc(Nc3ccc(N4CCNCC4)cn3)nc2n1C1CCCC1.O=C(O)CCC(=O)O [LEE011-cusakal1-036],DMP433 [ppm],[4],2.100 ppm
same,Nitrite [ppm],[5]; [11],app. 0.3 ppm
CN(C)C(=O)c1cc2cnc(Nc3ccc(N4CCNCC4)cn3)nc2n1C1CCCC1 [Batch 805193A073],DMP433 [ppm] LOQ (0.0625 ppm),[4],LOQ
same,"DMP433 [ppm], result in brackets (extrapolation, estimate of actual value below LOQ)",[4],0.030 ppm
same,Nitrite [ppm] LOD (1 ppm),[5]; [7],<LOD
